# Data: patent publication US20140163095A1, “USE OF ERIBULIN IN THE TREATMENT OF BREAST CANCER” (priority 2012, published 2014)
# Test system: locally advanced or metastatic breast cancer
# Test: Phase III clinical trial comparing eribulin mesylate and capecitabine
# [1] = of patients with any new metastasis
# Procedure: A global, randomized, open-label, two-parallel-arm, phase III clinical trial of eribulin (eribulin mesylate) and capecitabine was performed.
# This study randomized 1102 patients who had up to three prior chemotherapy regimens, and no more than two prior regimens for advanced and/or metastatic disease. The prior regimens must have included an anthracycline and a taxane, either in the (neo) adjuvant setting or for locally advanced or metastatic disease. Patients must have had documented evidence of progression during or after their most recent anti-cancer therapy. […] Patients were randomized to receive either eribulin mesylate as an intravenous (IV) infusion of 1.4 mg/m^2 over 2-5 minutes on days 1 and 8 every 21 days or capecitabine as an oral administration of 2.5 g/m^2/day administered twice daily in two equal doses on days 1 to 14 every 21 days.
# This study was designed to have co-primary endpoints, overall survival (OS) and progression free survival (PFS), with alpha spending 0.04 and 0.01, respectively.
# Progression events (disease progression determined by Response Evaluation Criteria in Solid Tumors [RECIST, version 1.0]) were categorized as: (i) emergence of a new lesion/metastasis, defined here as a lesion identified at progression that had not been previously reported, (ii) increase in size of an existing (previously reported) lesion (target or non-target), and (iii) other PFS event, e.g., death, clinical progression, or censoring. Investigator review of disease progression was used as the primary analysis for these investigations. Where progression was determined by investigator review, no further scans were performed, leading to informative censoring of independent review data (approximately 20%). The number of new metastases observed by independent review was considered an under-estimate due to this considerable informative censoring. OS and PFS were compared between treatment arms using two-sided, stratified (geographic region and HER2 status) log-rank tests. The correlation between progression events and OS was investigated by Cox regression, incorporating the event as a time-dependent covariate. New metastasis-free survival, defined as time from randomization to death or progression due to appearance of a new metastasis (whichever occurs earlier), was also analyzed.
structure (smiles),measurement,setting,value
"CCCCCOC(=O)Nc1nc(=O)n([C@@H]2O[C@H](C)[C@@H](O)[C@H]2O)cc1F [Capecitabine, reference compound]",median overall survival (OS),all randomized patients,14.5 months
same,median progression-free survival (PFS),all randomized patients,4.2 months
same,"New metastasis site: Bone, patients",count,62
same,"New metastasis site: Breast, patients",count,13
same,"New metastasis site: CNS (brain/spine), patients",count,25
same,"New metastasis site: Chest wall, patients",count,5
same,"New metastasis site: Liver, patients",count,74
same,"New metastasis site: Lung, patients",count,76
same,"New metastasis site: Lymph nodes, patients",count,55
same,"New metastasis site: Other, patients",count,53
same,"New metastasis site: Skin, patients",count,26
same,Number of patients with any new metastasis observed,"count, investigator review, intent-to-treat",316
same,patients with progression due to a new metastasis,investigator review,52.0%
same,patients with progression due to increase in the size of a pre-existing lesion,investigator review,23.5%
same,patients with progression due to other reasons such as death and clinical progression,investigator review,24.5%
same,"patients with any new metastasis observed, percentage","investigator review, intent-to-treat",(57.7) %
same,"New metastasis site: Bone, percentage",[1],(19.6) %
same,"New metastasis site: Breast, percentage",[1],(4.1) %
same,"New metastasis site: CNS (brain/spine), percentage",[1],(7.9) %
same,"New metastasis site: Chest wall, percentage",[1],(1.6) %
same,"New metastasis site: Liver, percentage",[1],(23.4) %
same,"New metastasis site: Lung, percentage",[1],(24.1) %
same,"New metastasis site: Lymph nodes, percentage",[1],(17.4) %
same,"New metastasis site: Other, percentage",[1],(16.8) %
same,"New metastasis site: Skin, percentage",[1],(8.2) %
same,Median OS,patients whose disease progressed due to other events,15.5 months
same,Median OS,patients with progression due to new metastasis,12.9 months
same,Median OS,patients with progression due to pre-existing lesion,17.4 months
